We go through ten molecules from US20230295141A1, “FXR SMALL MOLECULE AGONIST, THE PREPARATION AND USE THEREOF” (Cascade Pharmaceuticals, Inc., priority 2022, published 2023).

Where two headings read alike, the source gives them in different places.

In this test the target is T1, FXR (Homo sapiens, UniProt Q96RI1).
T1 construct: expressed in transfected cells; host or cells: HEK293T
T1 sequence (Q96RI1 212-476 isoform Q96RI1-1 limits assumed): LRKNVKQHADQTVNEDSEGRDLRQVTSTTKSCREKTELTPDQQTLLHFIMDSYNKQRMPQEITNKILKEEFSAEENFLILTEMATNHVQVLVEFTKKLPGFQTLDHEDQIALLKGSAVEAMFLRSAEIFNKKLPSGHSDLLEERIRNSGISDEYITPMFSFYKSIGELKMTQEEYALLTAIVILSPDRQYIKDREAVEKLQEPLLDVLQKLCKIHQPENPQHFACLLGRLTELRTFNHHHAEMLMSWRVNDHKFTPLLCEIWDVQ
The experiment in a line: FXR agonistic activity by GAL4-FXR-LBD reporter gene (Dual-Glo luciferase) detection in HEK293T cells. It counts as cell-based. From the text: Methods for Detecting FXR Agonistic Activity of Compounds Based on Reporter Gene Activity Detection Methods: The pGAL4-FXR-LBD and pG5-Luc plasmids used in the reporter gene detection system were constructed according to conventional molecular cloning methods, including main steps: the FXR (NM_001206979.2) cDNA sequence corresponding to the amino acid sequence of FXR-LBD (212-476AA) was inserted into pGAL4 vector between BamHI and Notl restriction sites using PCR technology to obtain pGAL4-FXR-LBD; pG5-Luc and phRL-TK plasmids were donated by Shanghai Institute of Materia Medica, Chinese Academy of Sciences; the plasmid was transformed into DH5a Escherichia coli by the CaC12 method, and after further culture and amplification, the corresponding plasmid DNA was purified and obtained with a plasmid extraction kit (TIANGEN, #D107). HEK293T cells were seeded in 96-well plates at a density of 1×10^4/well one day before plasmid transfection. Cell transfection was performed according to the instructions of the transfection reagent FuGENE® HD (Promega, #E2311), including main steps: […] 0.25 uL of FuGENE® HD was added, mixed well and let stand for 5 min at room temperature; then 10 uL of this mixture was added to the cell well containing 100 uL of culture medium. […] Then the diluted compounds were added to the cell culture medium for treatment for 24 h. 2 duplicate wells were set up in total. […] After cells were treated with compounds for 24 h, detections were performed according to the instructions of the Dual-Glo® Luciferase Assay System (Promega, #E2940), including main steps: […] then 40 uL of Dual-Glo® Stop & Glo® reagent were added and shaken at room temperature for 10 min; the luminescence signal value of Renilla luciferase (Renilla-Luc) was detected by the MD i3x multifunctional microplate reader; The ratio of Firefly-Luc/Renilla-Luc was used as the activating activity of the compound on FXR, and normalized by the ratio of the solvent DMSO group. The dose- response curves were fitted with four parameters using GraphPad Prism 6.0 software, and EC50 values were calculated.

Setting [1] is: HEK293T cells, pGAL4-FXR-LBD/pG5-Luc reporter, 24 h treatment, read-out: Cellular Level Activity EC50(nM) of FXR.
The mark [2] stands for this setting: Cellular Level Activity EC50(nM) of FXR, HEK293T cells, pGAL4-FXR-LBD/pG5-Luc reporter, 24 h treatment.
Setting [3] is: HEK293T reporter gene assay, read-out: EC50 values (FXR agonistic activity).
The mark [4] stands for this setting: EC50 values (FXR agonistic activity), HEK293T reporter gene assay.

As for `[2H]C([2H])(O[C@H]1C[C@H]2CC[C@@H](C1)N2c1ccc(-c2noc(=O)[nH]2)c(C(F)(F)F)c1)c1c(-c2c(Cl)cccc2Cl)noc1C1CC1` [Example 7], the EC50 under setting [1] was in the range of 5 to 10 nM. `O=c1[nH]c(-c2ccc(N3[C@@H]4CC[C@H]3C[C@@H](OCc3c(-c5c(Cl)cccc5Cl)noc3C3CC3)C4)cc2F)no1` [Control 1, reference compound]: the EC50 under setting [2] lay in the range of 5 to 10 nM. Consider `[2H]C([2H])(O[C@H]1C[C@H]2CC[C@@H](C1)N2c1ccc(-c2noc(=O)[nH]2)c(F)c1)c1c(-c2ccccc2OC(F)(F)F)noc1C1CC1` [Example 9], for which the EC50 under setting [1] lay in the range of 5 to 10 nM. On the same count and under the same terms, in the case of `[2H]C([2H])(O[C@H]1C[C@H]2CC[C@@H](C1)N2c1ccc(-c2noc(=O)[nH]2)c(OC)c1)c1c(-c2c(Cl)cccc2Cl)noc1C1CC1` [Example 6] it was 5 to 10 nM. In the case of `[2H]C([2H])(O[C@H]1C[C@H]2CC[C@@H](C1)N2c1ccc(-c2noc(=O)[nH]2)nc1)c1c(-c2c(Cl)cccc2Cl)noc1C1CC1` [Example 2], the EC50 reads like this: under setting [1], below 5 nM; under setting [3], below 5 nM. With `[2H]C(O[C@H]1C[C@H]2CC[C@@H](C1)N2c1ccc(-c2noc(=O)[nH]2)c(F)c1)c1c(-c2c(Cl)cccc2Cl)noc1C1CC1` (stereo partly drawn) [Example 4], the EC50 reads like this: under setting [2], below 5 nM; under setting [4], below 5 nM. Turning to `[2H]C([2H])(O[C@H]1C[C@H]2CC[C@@H](C1)N2c1ccc(-c2noc(=O)[nH]2)cc1)c1c(-c2c(Cl)cccc2Cl)noc1C1CC1` [Example 1], the EC50 under setting [1] is below 5 nM and the EC50 under setting [3] was below 5 nM. As for `[2H]C([2H])(O[C@H]1C[C@H]2CC[C@@H](C1)N2c1ccc(-c2noc(=O)[nH]2)c(C)c1)c1c(-c2c(Cl)cccc2Cl)noc1C1CC1` [Example 5], the EC50 under setting [1] lay within 5 to 10 nM.

For `[2H]C([2H])(O[C@H]1C[C@H]2CC[C@@H](C1)N2c1ccc(-c2noc(=O)[nH]2)c(F)c1)c1c(-c2c(Cl)cccc2Cl)noc1C1CC1` [Example 3], the EC50 is, setting by setting: under setting [2], below 5 nM; under setting [4], below 5 nM. Also, for the setting “HEK293T reporter gene assay, comparison with LJN452 and Control 1”, the “FXR agonistic / cellular level activity, in words” value is “significantly improved activity”. With `[2H]C([2H])(O[C@H]1C[C@H]2CC[C@@H](C1)N2c1ccc(-c2noc(=O)[nH]2)c(F)c1)c1c(-c2ccccc2C(F)(F)F)noc1C1CC1` [Example 8], the EC50 under setting [1] was 5 to 10 nM.
